Results from patent US9265751B2, “Methods for treating chronic pain” (Nagasaki University, priority 2008, dated 2016).
Entries after “also recorded” stand apart in the source; their conditions may differ.

How the values were obtained:
Format in all cases: in vivo, mouse
LPA1 receptor = test: Mechanical stimulus-induced pain test (digitized von Frey) in SART (ICS) stress mice given LPA1 AS-ODN/MS-ODN i.c.v.
Description: Exposure to SART (ICS) stress was achieved by repeatedly altering extremely different rearing environmental temperatures. Temperature settings were established at room temperature (24° C.) and cold temperature (4° C.). Rearing cages were placed in environments set at the respective temperatures; the animals were reared, with transfer of the mice only every 30 minutes in the daytime (from 10:00 to 16:30), and at the cold temperature in the nighttime (from 16:30 to 10:00 on the following day). This repeated stress was given for 3 days from 16:30 on the day before stress loading to 10:00 on day 3 of stress loading. A solid food and agar for water supply were always kept in the cage during the above-described stress loading period, to maintain an environment allowing the animals to have free access thereto.
A hypersensitive response induction experiment with ICS stress was applied to mice previously dosed with an antisense oligodeoxynucleotide that complementarily binds to the lysophosphatidic acid (hereinafter, denoted as LPA) receptor gene to inhibit the expression thereof (hereinafter, denoted as AS-ODN) as an animal model of generalized pain disease, and the stress exposure of Production Example 1 was performed.
Ten to twelve C57BL/6J mice at 6 weeks of age (20 to 22 g) were used in a normal control group and an ICS stress loading group.
Using “5′-[…]-3′ (SEQ ID NO:5)” as AS-ODN, BLAST search was performed; it was confirmed that the sequence thereof was specific for the LPA1 receptor. For comparative control, mice dosed with a missense oligodeoxynucleotide having a noncomplementary sequence (hereinafter, denoted as MS-ODN) and mice dosed with artificial cerebro-spinal fluid (ACSF) as Vehicle were used. Using “5′-[…]-3′ (SEQ ID NO:6)” as MS-ODN, BLAST search was performed; it was confirmed that the sequence thereof was not similar to other receptors.
SART (ICS) stress based on Production Example 1 above was loaded on the mice after being given ODN and ACSF, after which pain threshold values were measured, and changes over days were examined.
In Example 3, chronic pains were evaluated on mice loaded with stress based on Production Example and Examples. Regarding how to evaluate chronic pains, pain threshold values were evaluated over days by a mechanical stimulus-induced pain test. The mechanical stimulus-induced pain test was performed according to the digitized von Frey method.
AS-ODN was given by intracerebroventricular administration at 10 μg once daily, starting five days before SART (ICS) stress loading. After pretreatment for 5 consecutive days, SART (ICS) stress was started, and intracerebroventricular administration was performed once a day even during the stress loading period. However, there was no administration on day 3 of stress loading, after which administration was discontinued; a total of 7 administrations were performed. The single-dose volume was 5 μl.
In the same way as the above-described method of treatment, MS-ODN and Vehicle were administered 7 times in total before stress loading and during the stress loading period.
On mice acclimated to the environment on a 5 mm×5 mm-mesh net (adaptation-applied), a custom-made plastic chip was applied to a planta of each mouse under a constant pressure from below. At that time, responding weight threshold values were measured digitally.

LPA2 receptor = test: Mechanical stimulus-induced pain test (digitized von Frey) in SART (ICS) stress mice given LPA2 AS-ODN/MS-ODN i.c.v.
ATX = test: Mechanical nociception test (automated digitized von Frey) in ICS stress mice given ATX-AS/ATX-MS i.c.v.; conditions: P1 to P12 after ICS stress; 10 μg/5 μl i.c.v.
Description: ATX-antisense is a drug that suppresses the synthesis of the mRNA of ATX, an LPA synthetase. The ATX-antisense (ATX-AS) used was designed to have the base sequence: “5′-GTCTTGCCATGCCGAGGGAT-3′ (SEQ ID NO:13)”, and the ATX-missense (ATX-MS) used was designed to have the base sequence: “5′-GTTCTCGCAGTCGCAGGAGT-3′ (SEQ ID NO:14)”. The dosage was 10 μg/5 μl both for the antisense and for the missense.
ATX-antisense (operon, 3170003) was given by intracerebroventricular administration on consecutive days starting five days previously, including days of stress loading (FIG. 8A). Doses were given in solution in artificial cerebro-spinal fluid. For control groups, the same amounts of ATX-missense (operon, 3170004) and the solvent were administered, respectively. […]
(§1) Prior to the experiment, each mouse was placed on a rack on a mesh and covered with a cage from above, and the animal was acclimated to the same environment as the experiment for not less than 1 hour. The tip of a plastic chip was pressed vertically against the center of a hind paw of the mouse from below the rack; when the mouse behaved to withdraw the hind leg, the automatically measured value was read. […]
(§2) With the day of completion of ICS loading as P1, pain threshold values were measured on P3, P5, P12 and P19.

PLA2 [1] = test: Mechanical nociception test (automated digitized von Frey) in ICS stress mice given BEL i.c.v.; conditions: between P1 and P5, significant change at P3, two doses
Description: (§3) As a PLA2 inhibitor, Bromoenol lactone (Cayman chemical) was used. Drug administration was performed twice in total at 10 a.m. before performing repeated cold stimulation in stress loading (FIG. 9A).
(§4) The whole amount of 5 mg of the drug was dissolved in 200 μl of DMSO and dispensed at 20 nmol/10 μl. 384 μl of artificial cerebro-spinal fluid was added thereto. For a control group, the same amounts of DMSO and artificial cerebro-spinal fluid were mixed and administered. Using a 50 μl Hamilton microsyringe and a needle-equipped cannula, a total volume of 5 μl was given by intracerebroventricular administration. A 26-gauge needle for intracerebroventricular administration was used.
(§5) To create a mouse model of fibromyalgia, ICS (Intermittent Cold Stress) was loaded. […]
as §1, §2

PLA2 [2] = test: Thermal nociception test (Hargreaves) in ICS stress mice given BEL i.c.v.; conditions: between P1 and P5, significant change at P3, two doses
Description: as §3, §4, §5
Prior to the experiment, each mouse was placed on a glass plate and covered with a cage from above, and the animal was acclimated to the same environment as the experiment for not less than 1 hour. A thermal stimulus was given to a hind paw of the mouse; when the mouse behaved to escape the stimulus, the automatically measured value was read. […]
as §2

[3] = SART (ICS) stress loading group, day 1 of stress loading, 10 μg i.c.v. once daily
[4] = SART (ICS) stress loading group, day before stress loading, 10 μg i.c.v. once daily
[5] = SART (ICS) stress loading group, pretreated i.c.v.
[6] = SART (ICS) stress loading group
[7] = treated normal control group (no stress), day 1 of stress loading

Molecule	pain threshold value (PWT) (LPA1 receptor; [3]) [g]	pain threshold value (PWT) (LPA1 receptor; [4]) [g]	persistence of hypersensitive response (LPA2 receptor; [6])	pain threshold value (PWT) (LPA2 receptor; [3]) [g]	pain threshold value (PWT) (LPA2 receptor; [4]) [g]	also measured
5′-AGCTGCCATGACAGTGCTGT-3′ (DNA, backbone and methylation of C not given here) [LPA1 AS-ODN]	8.76 ± 0.5	9.77 ± 0.4	–	–	–	hypersensitive response / chronic pain after SART (ICS) stress, measured over days (LPA1 receptor; [5]): no hypersensitive responses were noted; also recorded: suppressed; threshold values of treated normal control group versus Vehicle and LPA1 MS-ODN groups (LPA1 receptor; normal control group (no stress)): comparable
5′-CGATACACTAGAACGCTCGA-3′ (DNA, backbone and methylation of C not given here) [MS-ODN]	5.68 ± 0.7	9.59 ± 0.3	at least 19 days	5.79 ± 0.1	9.58 ± 0.3	persistence of hypersensitive response (LPA1 receptor; [6]): at least 19 days; pain threshold value (PWT) (LPA1 receptor; [7]): 9.49 ± 0.2 g; pain threshold value (PWT) (LPA2 receptor; [7]): 9.65 ± 0.3 g
5′-GTTCTCGCAGTCGCAGGAGT-3′ (DNA GTTCTCGCAGTCGCAGGAGT; listed as DNA, chemistry not given here) [ATX-MS, ATX missense control oligonucleotide]	–	–	–	–	–	mechanical nociceptive response threshold values after ICS stress loading (ATX): significant reductions
5′-TACTACAACGAGACCATCGG-3′ (DNA, backbone and methylation of C not given here) [LPA2 AS-ODN]	–	–	at least 19 days	6.43 ± 0.1	9.77 ± 0.5	suppression of SART (ICS) stress-induced pains (LPA2 receptor; [5]): no suppression
O=C1O/C(=C/Br)CCC1c1cccc2ccccc12 (stereo not shown) [BEL, Bromoenol lactone]	–	–	–	–	–	reductions of mechanical nociceptive response threshold values due to ICS stress (PLA2 [1]): tended to be suppressed; thermal hyperalgesia due to ICS stress (PLA2 [2]): tended to be suppressed
